The source of these data is ChEMBL document CHEMBL6153057, “Novel Imidazotriazine Derivatives as IL-17 Modulators for Treating Inflammatory and Autoimmune Disorders” (ACS Med Chem Lett, 2025).

The assay is described as follows: Antiinflammatory activity in human HDF cells assessed as inhibition of IL-17A/TNF-alpha-stimulated IL-6 release preincubated for 5 hrs followed by IL-17A/TNF-alpha stimulation and measured after 18 to 20 hrs by homogenous time-resolved FRET based assay. The class given is functional, cell-based.
For `[2H]C([2H])([2H])O[C@@H]1CCN(C(=O)[C@@H]2CCC(F)(F)CO2)[C@@H](c2cnn3cc([C@@H](NC(=O)c4ccnn4C)C4CCC(F)(F)CC4)nc3n2)C1`, the IC50 (in general, the concentration needed to halve the response being measured) was 39.8 nM.

As to `[2H]C([2H])([2H])O[C@@H]1CCN(C(=O)[C@@H]2CCC(F)(F)CO2)[C@H](c2cnn3cc([C@@H](NC(=O)c4ccnn4C)C4CCC(F)(F)CC4)nc3n2)C1`, the half-maximal inhibitory concentration (IC50) was 3.98 nM.

With `CO[C@@H]1CCN(C(=O)[C@@H]2CCC(F)(F)CO2)[C@H](c2cnn3cc([C@@H](NC(=O)c4ccnn4C)C4CCC(F)(F)CC4)nc3n2)C1`, the IC50 is 3.16 nM.

For `CO[C@@H]1CCN(C(=O)[C@@H]2CCC(F)(F)CO2)[C@@H](c2cnn3cc([C@@H](NC(=O)c4ccnn4C)C4CCC(F)(F)CC4)nc3n2)C1`, the IC50 was 39.8 nM.
